Consider 32 compounds from BindingDB's records for doi:10.1021/jm00028a009 (Cambridge Neuroscience, 1994).

Structures are written as SMILES.

This experiment deals with Sigma non-opioid intracellular receptor 1 (Cavia porcellus). The experiment is described as follows: Tested in vitro for the concentration required to inhibit specific [3H]DTG radioligand binding to sigma receptor on guinea pig brain membrane.
In general, IC50 refers to the concentration needed to halve the response being measured. Low readings indicate inhibition by little substance, high ones a need for much substance. In turn, `CCc1cccc(N=C(N)Nc2cccc(CC)c2)c1` returned an IC50 of 8 nM.
Then `CC(C)c1ccc(N=C(N)Nc2ccc(C(C)C)cc2)cc1`, with 242 nM.
Then `NC(=Nc1ccc(Br)cc1)Nc1ccc(Br)cc1`, with 33 nM; and `CC(C)c1cccc(N=C(N)Nc2cccc(C(C)C)c2)c1`, with 96 nM; and `NC(=Nc1cccc2ccccc12)Nc1cccc2ccccc12`, with 165 nM.
For `N=C(N1CCc2ccccc21)N1CCc2ccccc21` [C-[Bis-(2,3-dihydro-indol-1-yl)]-methyleneamine], the IC50 amounted to 7180 nM. Against the preceding compound, the IC50 is about 44-fold higher.
The result for `CN(C(N)=Nc1cccc(N)c1)c1cccc2ccccc12` [N'-(3-Amino-phenyl)-N-methyl-N-naphthalen-1-yl-guanidine] reads 13000 nM.
On to `CCc1cccc(N=C(N)N(C)c2cccc3ccccc23)c1` [N'-(3-Ethyl-phenyl)-N-methyl-N-naphthalen-1-yl-guanidine], for which the IC50 was found to be 1000 nM.
The result for `COc1cccc(N=C(N)Nc2cccc(OC)c2)c1` [N,N'-Bis-(3-methoxy-phenyl)-guanidine] reads 351 nM; that for `NC(=Nc1cccc2c1CCC2)Nc1cccc2c1CCC2` [N,N'-Di-indan-4-yl-guanidine], 29 nM; that for `NC(=Nc1cccc2ccccc12)N(c1ccccc1)c1cccc2ccccc12` [N,N'-Di-naphthalen-1-yl-N-phenyl-guanidine], 7930 nM.
Then `NC(=Nc1ccc2ccccc2c1)Nc1ccc2ccccc2c1` [N,N'-Di-naphthalen-2-yl-guanidine], with 92 nM; and `CN(C(=N)N(C)c1cccc2ccccc12)c1cccc2ccccc12` [N,N'-Dimethyl-N,N'-di-naphthalen-1-yl-guanidine], with 10700 nM.
The result for `NC(=Nc1cccc2ccccc12)Nc1ccccc1I` [N-(2-Iodo-phenyl)-N'-naphthalen-1-yl-guanidine] reads 40 nM; that for `CC(C)c1ccccc1N=C(N)Nc1cccc2ccccc12` [N-(2-Isopropyl-phenyl)-N'-naphthalen-1-yl-guanidine], 91 nM; that for `CN(C(N)=Nc1cccc2ccccc12)c1cccc(N)c1` [N-(3-Amino-phenyl)-N-methyl-N'-naphthalen-1-yl-guanidine], 2700 nM.
Take `CN(C(N)=Nc1cccc2ccccc12)c1cccc(N=[N+]=[N-])c1` [N-(3-Azido-phenyl)-N-methyl-N'-naphthalen-1-yl-guanidine]: the half-inhibitory concentration (IC50) is 3020 nM.
Compound `CCc1cccc(N=C(N)N2CCC(c3ccccc3)CC2)c1` [N-(3-Ethyl-phenyl)-4-phenyl-piperidine-1-carboxamidine] registered an IC50 of 60 nM.
The result for `CCc1cccc(NC(N)=Nc2cccc3ccccc23)c1` [N-(3-Ethyl-phenyl)-N'-naphthalen-1-yl-guanidine] reads 54 nM.
Regarding `CCc1cccc(N(C)C(=N)N(C)c2cccc3ccccc23)c1` [N-(3-Ethyl-phenyl)-N,N'-dimethyl-N'-naphthalen-1-yl-guanidine], the IC50 was 1210 nM.
With `CCN(C(N)=Nc1cccc2ccccc12)c1cccc2ccccc12` [N-Ethyl-N,N'-di-naphthalen-1-yl-guanidine], the IC50 was determined as 6130 nM.
In turn, `CCc1cccc(N(CC)C(N)=Nc2cccc3ccccc23)c1` [N-Ethyl-N-(3-ethyl-phenyl)-N'-naphthalen-1-yl-guanidine] displayed an IC50 of 2190 nM.
In turn, `CN(/C(N)=N/c1cccc2ccccc12)c1cccc([N+](=O)[O-])c1` [N-Methyl-N'-naphthalen-1-yl-N-(3-nitro-phenyl)-guanidine] registered a half-maximal inhibitory concentration (IC50) of 6260 nM.
The result for `CN(C(N)=Nc1cccc2ccccc12)c1ccccc1` [N-Methyl-N'-naphthalen-1-yl-N-phenyl-guanidine] reads 2900 nM; that for `Cc1cccc(N=C(N)N(C)c2cccc(C)c2)c1` [N-Methyl-N,N'-di-m-tolyl-guanidine], 247 nM; that for `CN(C(=N)N(c1ccccc1)c1cccc2ccccc12)c1cccc2ccccc12` [N-Methyl-N,N'-di-naphthalen-1-yl-N'-phenyl-guanidine], 11000 nM.
`CN(C(N)=Nc1cccc2ccccc12)c1cccc2ccccc12` [N-Methyl-N,N'-di-naphthalen-1-yl-guanidine] came in with an IC50 of 4800 nM.
The result for `C/[N+](=C(/[NH-])Nc1cccc([N+](=O)[O-])c1)c1cccc2ccccc12` [N-Methyl-N-naphthalen-1-yl-N'-(3-nitro-phenyl)-guanidine] reads 2640 nM.
As for `NC(=Nc1cccc2ccccc12)N1CCC(c2ccccc2)CC1` [N-Naphthalen-1-yl-4-phenyl-piperidine-1-carboxamidine], the IC50 was determined as 343 nM.
The result for `Cc1cccc(NC(N)=Nc2cccc3ccccc23)c1` [N-Naphthalen-1-yl-N'-m-tolyl-guanidine] reads 75 nM; that for `NC(=Nc1cccc2ccccc12)N1CCCCCC1` [N-Naphthalen-1-yl-azepane-1-carboxamidine], 1410 nM.
For the compound `NC(=Nc1cccc2ccccc12)N1CCCCC1` [N-Naphthalen-1-yl-piperidine-1-carboxamidine], the IC50 is 1070 nM. The IC50 values of the last two compounds are within 1.5-fold of each other.
